Data as given in patent US20130338222A1, “METHODS FOR C[…] MITES” (SYNGENTA CROP PROTECTION LLC, priority 2010, published 2013).

Tested on: Varroa destructor
Assay: Varroa mite contact test on Potter-tower-treated Petri dishes, mortality after 72 h
Type: in vivo
Details: adult V. destructor, 20 mites (4 dishes of 5), assessed after 72 h
Source text: Varroa mites came from bee colonies provided by a beekeeper. The mite population is kept in a dedicated apiary. For screening needs adults are collected on the same day as the beginning of experiment, either in beehive cells containing brood of worker bees or drones, or directly on bees emerging during collection.
Bee nymphs needed to feed adults of Varroa mites during experiments are choosen within the frames from which Varroa is also collected. They are collected at the stage of nymph with white or pink coloured eyes according methology described by Rembold et Kremer (Characterization of postembryonic developmental stages of the female castes of the honey bee, Apis mellifera L. Apidologie 11: 29-38).
3 cm diameter Petri dishes were used as confinement material of Varroa mites during experiments. Covers with wire mesh were put on the top of each Petri dish in order to avoid the mites to run away but also to keep favorable humidity for the bee nymph. […]
After treatment of Petri dishes, five (5) adults of V. destructor collected from the brood were placed in the petri dish. […] Mortality levels are assessed after 72 h (mites which are able to move their legs are considered as alive). […]

Compound	% mortality of Varroa (formulation SC240, concentration 0.8 microlitre) [%]	% mortality of Varroa (formulation SC240, concentration 1.25 microlitre) [%]
Cc1cc(C)c(C2=C(OC(=O)CC(C)(C)C)C3(CCCC3)OC2=O)c(C)c1 [spiromesifen, 3-mesityl-2-oxo-1-oxaspiro[4.4]non-3-en-4-yl 3,3-dimethylbutyrate]	100	
CCC(C)(C)C(=O)OC1=C(c2ccc(Cl)cc2Cl)C(=O)OC12CCCCC2 [spirodiclofen, 3-(2,4-dichlorophenyl)-2-oxo-1-oxaspiro[4.5]dec-3-en-4-yl 2,2-dimethylbutyrate]		100
